Reference: ChEMBL document CHEMBL5724914, “Linking interpersonal differences in gut microbiota composition and drug biotransformation activity” (2024)

Key:
[1] = The drug is tested on Z-013 corresponding to rabbit gut metagenome with ENA study accession number: PRJEB37062 and ENA sample accession number: ERS12561813 for biotransformation under anaerobic condition. The drug concentrations were measured over 9 timepoints collected between 0 and 24 hours of incubation by liquid-chromatography-coupled mass spectrometry (LC–MS); conditions: 2 µM
[2] = The drug is tested on WLS-090 corresponding to human gut metagenome with ENA study accession number: PRJEB37062 and ENA sample accession number: ERS12561753 for biotransformation under anaerobic condition. The drug concentrations were measured over 9 timepoints collected between 0 and 24 hours of incubation by liquid-chromatography-coupled mass spectrometry (LC–MS); conditions: 2 µM
[3] = human gut metagenome, 24 h, 2 µM
[4] = human gut metagenome, 24 h, 2 µM; remark: listed apart in the source
[5] = The drug is tested on Z-003 corresponding to pig gut metagenome with ENA study accession number: PRJEB37062 and ENA sample accession number: ERS12561803 for biotransformation under anaerobic condition. The drug concentrations were measured over 9 timepoints collected between 0 and 24 hours of incubation by liquid-chromatography-coupled mass spectrometry (LC–MS); conditions: 2 µM
[6] = The drug is tested on Z-010 corresponding to metagenome with ENA study accession number: PRJEB37062 and ENA sample accession number: ERS12561810 for biotransformation under anaerobic condition. The drug concentrations were measured over 9 timepoints collected between 0 and 24 hours of incubation by liquid-chromatography-coupled mass spectrometry (LC–MS); conditions: 2 µM
[7] = human gut metagenome, 24 h, 2 µM; remark: listed apart in the source
[8] = human gut metagenome, 24 h, 2 µM; remark: listed apart in the source
[9] = The drug is tested on Z-030 corresponding to mouse gut metagenome with ENA study accession number: PRJEB37062 and ENA sample accession number: ERS12561829 for biotransformation under anaerobic condition. The drug concentrations were measured over 9 timepoints collected between 0 and 24 hours of incubation by liquid-chromatography-coupled mass spectrometry (LC–MS); conditions: 2 µM
[10] = The drug is tested on WLS-240 corresponding to human gut metagenome with ENA study accession number: PRJEB37062 and ENA sample accession number: ERS12561773 for biotransformation under anaerobic condition. The drug concentrations were measured over 9 timepoints collected between 0 and 24 hours of incubation by liquid-chromatography-coupled mass spectrometry (LC–MS); conditions: 2 µM
[11] = The drug is tested on WLS-220 corresponding to human gut metagenome with ENA study accession number: PRJEB37062 and ENA sample accession number: ERS12561769 for biotransformation under anaerobic condition. The drug concentrations were measured over 9 timepoints collected between 0 and 24 hours of incubation by liquid-chromatography-coupled mass spectrometry (LC–MS); conditions: 2 µM
[12] = The drug is tested on Z-011 corresponding to mouse gut metagenome with ENA study accession number: PRJEB37062 and ENA sample accession number: ERS12561811 for biotransformation under anaerobic condition. The drug concentrations were measured over 9 timepoints collected between 0 and 24 hours of incubation by liquid-chromatography-coupled mass spectrometry (LC–MS); conditions: 2 µM
[13] = The drug is tested on Z-017 corresponding to mouse gut metagenome with ENA study accession number: PRJEB37062 and ENA sample accession number: ERS12561816 for biotransformation under anaerobic condition. The drug concentrations were measured over 9 timepoints collected between 0 and 24 hours of incubation by liquid-chromatography-coupled mass spectrometry (LC–MS); conditions: 2 µM
[14] = human gut metagenome, 24 h, 2 µM; remark: listed apart in the source
[15] = human gut metagenome, 24 h, 2 µM; remark: listed apart in the source
[16] = human gut metagenome, 24 h, 2 µM; remark: listed apart in the source
[17] = The drug is tested on Z-009 corresponding to pig gut metagenome with ENA study accession number: PRJEB37062 and ENA sample accession number: ERS12561809 for biotransformation under anaerobic condition. The drug concentrations were measured over 9 timepoints collected between 0 and 24 hours of incubation by liquid-chromatography-coupled mass spectrometry (LC–MS); conditions: 2 µM
[18] = human gut metagenome, 24 h, 2 µM; remark: listed apart in the source
[19] = The drug is tested on Z-023 corresponding to metagenome with ENA study accession number: PRJEB37062 and ENA sample accession number: ERS12561822 for biotransformation under anaerobic condition. The drug concentrations were measured over 9 timepoints collected between 0 and 24 hours of incubation by liquid-chromatography-coupled mass spectrometry (LC–MS); conditions: 2 µM
[20] = The drug is tested on Z-025 corresponding to rabbit gut metagenome with ENA study accession number: PRJEB37062 and ENA sample accession number: ERS12561824 for biotransformation under anaerobic condition. The drug concentrations were measured over 9 timepoints collected between 0 and 24 hours of incubation by liquid-chromatography-coupled mass spectrometry (LC–MS); conditions: 2 µM
Further: call rule not given here.

SMILES	Bacterial Biotransformation [1]	Bacterial Biotransformation [2]	Bacterial Biotransformation [3]	Bacterial Biotransformation [4]	Bacterial Biotransformation [5]	Bacterial Biotransformation [6]	Bacterial Biotransformation [7]	Bacterial Biotransformation [8]	Bacterial Biotransformation [9]	Bacterial Biotransformation [10]	Bacterial Biotransformation [11]	Bacterial Biotransformation [12]	Bacterial Biotransformation [13]	Bacterial Biotransformation [14]	Bacterial Biotransformation [15]	Bacterial Biotransformation [16]	Bacterial Biotransformation [17]	Bacterial Biotransformation [18]	Bacterial Biotransformation [19]	Bacterial Biotransformation [20]
OCCN(CCO)c1nc(N2CCCCC2)c2nc(N(CCO)CCO)nc(N3CCCCC3)c2n1 [DIPYRIDAMOLE]	Compound NOT metabolized	Compound metabolized	Compound metabolized	Compound NOT metabolized	Compound metabolized	Compound metabolized	Compound metabolized	Compound NOT metabolized	Compound NOT metabolized	Compound metabolized	Compound metabolized	Compound NOT metabolized	Compound NOT metabolized	Compound NOT metabolized	Compound NOT metabolized	Compound metabolized	Compound metabolized	Compound metabolized	Compound metabolized	Compound NOT metabolized
COc1cc2nc(N3CCN(C(=O)C4COc5ccccc5O4)CC3)nc(N)c2cc1OC.CS(=O)(=O)O (stereo not given) [DOXAZOSIN MESYLATE]	Compound metabolized	Compound metabolized	Compound metabolized	Compound metabolized	Compound NOT metabolized	Compound metabolized	Compound NOT metabolized	Compound NOT metabolized	Compound NOT metabolized	Compound metabolized	Compound metabolized	Compound NOT metabolized	Compound NOT metabolized	Compound metabolized	Compound metabolized	Compound metabolized	Compound NOT metabolized	Compound metabolized	Compound metabolized	Compound NOT metabolized
CN(C)CCOC(C)(c1ccccc1)c1ccccn1.O=C(O)CCC(=O)O (stereo not given) [DOXYLAMINE SUCCINATE]	Compound NOT metabolized	Compound NOT metabolized	Compound NOT metabolized	Compound NOT metabolized	Compound NOT metabolized	Compound NOT metabolized	Compound NOT metabolized	Compound NOT metabolized	Compound NOT metabolized	Compound NOT metabolized	Compound NOT metabolized	Compound NOT metabolized	Compound NOT metabolized	Compound NOT metabolized	Compound NOT metabolized	Compound NOT metabolized	Compound NOT metabolized	Compound NOT metabolized	Compound NOT metabolized	Compound NOT metabolized

Next, values leading:

Bacterial Biotransformation [1]	Bacterial Biotransformation [2]	Bacterial Biotransformation [3]	Bacterial Biotransformation [4]	Bacterial Biotransformation [5]	Bacterial Biotransformation [6]	Bacterial Biotransformation [7]	Bacterial Biotransformation [8]	Bacterial Biotransformation [9]	Bacterial Biotransformation [10]	Bacterial Biotransformation [11]	Bacterial Biotransformation [12]	Bacterial Biotransformation [13]	Bacterial Biotransformation [14]	Bacterial Biotransformation [15]	Bacterial Biotransformation [16]	Bacterial Biotransformation [17]	Bacterial Biotransformation [18]	Bacterial Biotransformation [19]	Bacterial Biotransformation [20]	SMILES
Compound NOT metabolized	Compound metabolized	Compound metabolized	Compound metabolized	Compound NOT metabolized	Compound metabolized	Compound NOT metabolized	Compound metabolized	Compound NOT metabolized	Compound NOT metabolized	Compound NOT metabolized	Compound NOT metabolized	Compound NOT metabolized	Compound metabolized	Compound metabolized	Compound metabolized	Compound metabolized	Compound metabolized	Compound metabolized	Compound NOT metabolized	CCN(CC)CCOC(=O)C1(C2CCCCC2)CCCCC1 [DICYCLOMINE]
Compound NOT metabolized	Compound metabolized	Compound metabolized	Compound NOT metabolized	Compound metabolized	Compound metabolized	Compound metabolized	Compound metabolized	Compound NOT metabolized	Compound metabolized	Compound metabolized	Compound NOT metabolized	Compound NOT metabolized	Compound NOT metabolized	Compound metabolized	Compound metabolized	Compound metabolized	Compound metabolized	Compound metabolized	Compound NOT metabolized	COc1ccc([C@@H]2Sc3ccccc3N(CCN(C)C)C(=O)[C@@H]2OC(C)=O)cc1 [DILTIAZEM]
